Patent US20050137209A1, “Treatment of neurologic disorders with inhibitors of 11beta-HSD1” (AGY Therapeutics, Inc., priority 2003, published 2005)

What was measured:
[1] = test system: middle cerebral artery occlusion (MCAO) brain infarction; experiment: MCAO transient focal ischemia, BVT 2733 (Example 1); format: in vivo; settings: rat, 90 min MCAO, bolus 90 mg/kg at 4.5 h and 8.5 h post-occlusion, 24 h reperfusion
Protocol: BVT 2733 was tested in the following MCAO protocol. A middle cerebral artery (MCA) occlusion was used to induce temporary cerebral ischemia. It involves anesthetizing the rat, making an incision in the ventral neck region to isolate the common carotid artery and the internal and external carotid arteries. […] A silicone-coated mono filament is then inserted into the external carotid artery and woven through the artery into the internal carotid until it can occlude blood flow to the middle cerebral artery (MCA). The filament is removed after 90 min. After removal of the filament, the external carotid stump is tied shut and the clamps removed to allow the return of blood flow to the brain. The incision will be closed with wound clips. Post surgery, animals are observed until recovery from anesthesia.
During the surgery, animals are kept on a thermostat-regulated heating pad to maintain the body and head temperatures at 37° C. […]
The body core temperature of the animal is measured regularly, up to 1 day of recovery in some animals. […] Temperatures are measured manually using a rectal probe. […]
After 24 hours of reperfusion, the animals are sacrificed. […] Infarction volume was measured by digital imaging and image analysis software. Infarction volumes are determined in cortex and striatum and expressed as a percentage of the total brain volume. […]

human 11βHSD2 = biological target: T1, human 11βHSD2 (Homo sapiens, UniProt P80365); settings: cited from earlier work
T1 sequence (P80365 1-405): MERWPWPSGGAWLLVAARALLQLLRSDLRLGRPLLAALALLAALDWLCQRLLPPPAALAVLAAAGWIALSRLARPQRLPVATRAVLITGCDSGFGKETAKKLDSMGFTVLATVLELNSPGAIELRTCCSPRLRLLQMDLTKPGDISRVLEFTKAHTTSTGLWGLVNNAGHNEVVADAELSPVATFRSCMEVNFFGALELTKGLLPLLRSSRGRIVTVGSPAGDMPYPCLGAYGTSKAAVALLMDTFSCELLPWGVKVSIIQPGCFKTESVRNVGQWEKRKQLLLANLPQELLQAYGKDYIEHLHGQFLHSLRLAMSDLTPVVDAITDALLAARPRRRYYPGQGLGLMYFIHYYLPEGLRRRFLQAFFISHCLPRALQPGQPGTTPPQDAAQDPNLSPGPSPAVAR

[2] = test system: middle cerebral artery occlusion (MCAO) brain infarction; experiment: MCAO transient focal ischemia, carbenoxolone (Example 2); format: in vivo, rat
Excerpt: The method used is a middle cerebral artery (MCA) occlusion to induce temporary cerebral ischemia. It involves anesthetizing the rat, making an incision in the ventral neck region to isolate the common carotid artery and the internal and external carotid arteries. […] A silicone-coated mono filament is then inserted into the external carotid artery and woven through the artery into the internal carotid until it can occlude blood flow to the middle cerebral artery (MCA). The filament can then be tied in place (permanent occlusion) or removed after a short amount of time depending on the desired degree of ischemic damage (3 minutes to 2 hours). After removal of the filament, the external carotid stump is tied shut and the clamps removed to allow the return of blood flow to the brain. The incision was closed with wound clips. Post surgery, animals were observed until recovery from anesthesia. During the surgery, animals were kept on a thermostat-regulated heating pad to maintain the body and head temperatures at 37° C. To inhibit the blood from clotting 90 IU.kg^−1 Heparin was administered intravenously to the animal after occlusion of MCAO. The body core temperature of the animal was measured regularly, up to 1 day of recovery in some animals. […] Temperatures are measured manually using a rat probe. […] Infarction volume was measured by digital imaging and image analysis software. […]

Row | Structure (SMILES) | neuroprotection (FIG. 1) [1] | infarction volume in cortex and striatum as percentage of total brain volume, versus vehicle ([1]; TTC staining) | IC50 (human 11βHSD2) | neuroprotection ([2]; rat MCAO, carbenoxolone administered at 4 to 6 hours post-occlusion) | infarction volume in cortex and striatum as percentage of total brain volume, versus vehicle ([2]; rat, 90 min MCAO, bolus 20 mg at 5 min of reperfusion plus infusion 1.6 mg/h for 24 hours, TTC staining)
1 | Cc1c(Cl)cccc1S(=O)(=O)Nc1nc(CC(=O)N2CCN(C)CC2)cs1 [BVT 2733, 3-Chloro-2-methyl-N-{4-[2-(4-methyl-piperazin-1-yl)-2-oxo-ethyl]-thiazol-2-yl}-benzenesulfonamide] | potent and significant neuroprotection | smaller infarction compared to vehicle treated rats | > 10 µM |  | 
2 | CC1(C)[C@@H](OC(=O)CCC(=O)O)CC[C@]2(C)[C@H]3C(=O)C=C4[C@@H]5C[C@@](C)(C(=O)O)CC[C@]5(C)CC[C@@]4(C)[C@]3(C)CC[C@@H]12 [carbenoxolone] |  |  |  | potent neuroprotection | smaller infarction compared to vehicle treated rats
